Measurements from patent publication US6348447B1, “Pharmaceutical composition for the treatment of functional dyspepsia and/or irritable bowel syndrome and new use of substances therein” (priority 1998, dated 2002).
Entries after “also recorded” stand apart in the source; their conditions may differ.

Assays:
dyspepsia symptoms = conditions: dysmotility-like and gastroesophageal reflux-like dyspepsia; cited from earlier work
[1] = tested on: small bowel motility in humans with IBS; assay: Small bowel manometry in fasted IBS patients during intravenous GLP-1 infusion; format: in vivo, human; conditions: for Contraction frequency / Contraction amplitude / Contraction area / Motility index Ln (Sum (mm Hg*s)/min): 4 h, fasted IBS patients; for Contraction frequency: angle of Treitz; for Contraction frequency / Contraction amplitude / Contraction area / Motility index Ln (Sum (mm Hg*s)/min) / Adjusted MMC: mean ±SEM n=6; for Adjusted MMC: premature MMC at onset subtracted
Description: Experiments were carried out in 12 subjects fulfilling the Rome-criteria for IBS. In the fasted subjects a small bowel manometry tube was passed through the nose and located in antroduodenal region under fluoroscopy. Then, small bowel manometry was recorded for 8 hours in the fasted state, and for an additional 40 min after a meal (320 kcal). During the first 4-hour period of the recording saline was administered intravenously. During the second 4-hour period GLP-1 was given intravenously either at a dose of 1.2 pmol/kg/min (72 pmol/kg/h) (n=6) or 2.5 pmol/kg/min (150 pmol/kg/h) (n=6) with the infusion continued over the 40-minute meal period. GLP-1 was administered as an intravenous infusion at a dose of 1.2 or 2.5 pmol/kg/min. The compound was diluted from a stock solution of GLP-1 (Polypeptide, Wolfenbüttel, Hannover, Germany) 100 nmol/ml prepared according to general guidelines with sterilization filtration and endotoxin test, and divided in 10 ml ampoules.
For each patient the solution for infusion was constituted according to body weight. The dose to be given was multiplied by body weight, resulting in an individual dosing, expressed as pmol/min. The calculated total dose (according to extrapolated 250 ml infusion time) was taken from the stock solution and diluted in 250 ml infusion volume of saline (Natriumklorid 9 mg/ml, Pharmacia & Upjohn, Stockholm, Sweden). The infusion was then given at a rate of 1 ml/min with a constant infusion pump (Volumetric infusion pump, model 960, Imed, Oxon, UK) over 4 hours (240 min).
As this premature MMC cycle was considered to be due to an immediate effect of GLP-1 during a build-up of a steady state concentration in the circulation, an adjusted MMC prevalence during GLP-1 infusion was calculated by subtracting the premature MMC at onset from the remaining MMC observed during infusion of GLP-1.
In detail, the following results were obtained from the motility recordings (reference point: angle of Treitz; values are mean ±SEM of n=6 in each group; statistical evaluation by the non-parametric Wilcoxon signed-rank test): […]

[2] = tested on: gastric emptying and small intestinal motility; assay: Gastric emptying and small intestinal motility in the rat; format: in vivo
gastric acid secretion = conditions: in man; cited from earlier work
gastric emptying = conditions: in man; cited from earlier work
pancreatic secretion = conditions: in vivo; cited from earlier work

Molecule	Symptomatic relief, share of studied patients (dyspepsia symptoms)	Time after onset of infusion to start of an MMC in the duodenum ([1]; GLP-1 1.2 pmol/kg/min i.v.) [min]	Contraction frequency ([1]; GLP-1 1.2 pmol/kg/min i.v.)	Contraction amplitude ([1]; GLP-1 1.2 pmol/kg/min i.v.) [mm Hg]	Contraction area ([1]; GLP-1 1.2 pmol/kg/min i.v.) [mm Hg*s]	Motility index Ln (Sum (mm Hg*s)/min) ([1]; GLP-1 1.2 pmol/kg/min i.v.)	Adjusted MMC ([1]; GLP-1 1.2 pmol/kg/min i.v.)	Time after onset of infusion to start of an MMC in the duodenum ([1]; GLP-1 2.5 pmol/kg/min i.v.) [min]	Contraction frequency ([1]; GLP-1 2.5 pmol/kg/min i.v.)	Contraction amplitude ([1]; GLP-1 2.5 pmol/kg/min i.v.) [mm Hg]	Contraction area ([1]; GLP-1 2.5 pmol/kg/min i.v.) [mm Hg*s]	Motility index Ln (Sum (mm Hg*s)/min) ([1]; GLP-1 2.5 pmol/kg/min i.v.)	Adjusted MMC ([1]; GLP-1 2.5 pmol/kg/min i.v.)	Effect on motor activity in the small bowel (overall result in words) ([1]; IBS patients, fasted state)	Patients in whom a premature MMC was started in the duodenum ([1]; in each group (1.2 and 2.5 pmol/kg/min))	Action on gastric emptying and small intestinal motility (in words) [2]	Inhibition of gastric acid secretion (gastric acid secretion) [%]	Slowing of gastric emptying (gastric emptying) [%]	Inhibition of pancreatic secretion (pancreatic secretion)
COc1cc(N)c(Cl)cc1C(=O)NC1CCN(CCCOc2ccc(F)cc2)CC1OC (stereo not shown) [cisapride]	60-90%																		
glucagon-like peptide-1 [GLP-1]		≤ 14.2 ± 3.8	1.7 ± 0.4 #/min	24.7 ± 1.6	33.4 ± 3.2	4.7 ± 0.3	0.0 ± 0.0 #/4 h	≤ 12.0 ± 2.7	0.9 ± 0.2 #/min	23.6 ± 2.5	30.5 ± 5.3	3.8 ± 0.8	0.2 ± 0.2 #/4 h	able to reduce the motor activity; also recorded: dose-dependent reduction of motor activity	four out of six	profound inhibitory action	43	50	about 45%
